We go through 17 compounds from US5952530A, “Separation processes” (Union Carbide Chemicals & Plastics Technology Corporation, priority 1998, dated 1999).

Structures are written as SMILES. Read-outs that look alike come from different tables or passages of the source. Where only a bound is given, the exact number is not on record here.

For data set [1] the following is noted: for Kpartition: hexane:acetonitrile (1:1) solvent system, summary table; for partition coefficient Kp: hexane/acetonitrile solvent system, examples, Tables A and B.
The nature of data set [2]: Partition of polar organic molecules between hexane and acetonitrile. The class given is physicochemical. The conditions noted are these: hexane/acetonitrile equal volumes; GC; polar molecule wt%: propionaldehyde 7.5, butyraldehyde 5.2, valeraldehyde 5.5, 3-pentenenitrile 4.7. On the procedure: Solutions were prepared containing equal volumes of hexane and acetonitrile. To each solution was added a polar organic molecule identified in Table L below. The mixture was vigorously shaken, then allowed to settle and phase separate. The two phases were then analyzed for content of polar molecule by GC. In Table L, the percent by weight of polar molecule added to the hexane/acetonitrile solvent mixture together with Kpartition is given for various polar molecules.

A short description of data set [3]: Extraction of Texanol from rhodium/Ligand E catalyst: Kpartition and selectivity. It is filed as physicochemical. As for the experimental part: . To this mixture was added an equal volume of acetonitrile. The mixture was shaken for 30 minutes, then allowed to settle and phase separate for several hours. The two layers were then separated, and analyzed for content. The partition coefficient Kp of the catalyst is summarized in Table J below, together with the volume ratio of the two phases defined as Vratio=volume of the catalyst containing phase after extraction/volume of the extracting solution phase after extraction, and the selectivity of the extraction defined as Selectivity=Kpartition of catalyst/Kpartition organic material being separated from catalyst.
. […] The mixture was shaken for 30 minutes, then allowed to settle and phase separate over several hours. The two phases were then separated and analyzed for content. In Table K below, partition coefficient Kp of the catalyst and Texanol as well as the volume ratio of the two phases defined as Vratio=volume of the catalyst containing phase after extraction/volume of the extracting solution phase after extraction is summarized.

[4] abbreviates: DMSO, Examples 18 (B 0.8 wt%, 223 ppm Rh), 19 (C 0.8 wt%, 222 ppm Rh), 21 (E 0.6 wt%, 136 ppm Rh).
[5] abbreviates: polar solvent W: acetonitrile with 1 wt% water, Examples 24 (B 0.8 wt%, 223 ppm Rh), 25 (E 0.6 wt%, 120 ppm Rh).

`c1ccc(-c2ccccc2Op2oc3ccccc3c3ccccc3o2)c(Op2oc3ccccc3c3ccccc3o2)c1` [Ligand A, reference compound]: the partitioning behavior result in data set [1] (hexane/acetonitrile, Comparative Example A, control) is reported as “non-selective for the hydrocarbon phase”. Also, the Kpartition in data set [1] came out at 0.04.

The compound `CC=CCC#N` [3-pentenenitrile] displayed a Kpartition in data set [2] of 50.

Take `CC(C)(C)c1cc(-c2cc(C(C)(C)C)cc(C(C)(C)C)c2Op2oc3ccccc3c3ccccc3o2)c(Op2oc3ccccc3c3ccccc3o2)c(C(C)(C)C)c1` [Ligand I]: the Kpartition in data set [1] is on record as 2.3.

For `CC(C)(C)CC(C)(C)c1cc(-c2cc(C(C)(C)CC(C)(C)C)cc(C(C)(C)CC(C)(C)C)c2Op2oc3ccccc3c3ccccc3o2)c(Op2oc3ccccc3c3ccccc3o2)c(C(C)(C)CC(C)(C)C)c1` [Ligand C], the “Kpartition Ligand C” value in data set [1] (hexane/DMSO, Example 12) was found to be 68; in data set [1] (hexane/glutaronitrile, Example 13), 20. The compound further had a Kpartition in data set [1] of 38; a Kpartition under setting [4] of 42; a Kpartition (Glutaronitrile, Ligand 0.8 wt%, rhodium 222 ppm, Example 20) of 43; a Kpartition (hexane/acetonitrile, Ligand 0.8 wt%, rhodium 222 ppm, Example 16) of 28.

Consider `CCN(CC)P(Oc1c(-c2cc(OC)cc(C(C)(C)C)c2OP(N(CC)CC)N(CC)CC)cc(OC)cc1C(C)(C)C)N(CC)CC` [Ligand K], for which, in data set [1], the “partition coefficient Kp” value was 5 and the Kpartition is reported as 5.

In the case of `CC1(c2cc(-c3cc(C4(C)CCCCC4)cc(C4(C)CCCCC4)c3Op3oc4ccccc4c4ccccc4o3)c(Op3oc4ccccc4c4ccccc4o3)c(C3(C)CCCCC3)c2)CCCCC1` [Ligand G], the Kpartition in data set [1] stood at 19.

Compound `CCCC=O` [butyraldehyde] showed a Kpartition in data set [2] of 3.2.

With `CC(C)(C)c1cc(-c2cc(C(C)(C)C)cc(C(C)(C)C)c2Op2oc3ccc(C(C)(C)C)cc3c3cc(C(C)(C)C)ccc3o2)c(Op2oc3ccc(C(C)(C)C)cc3c3cc(C(C)(C)C)ccc3o2)c(C(C)(C)C)c1` [Ligand B], the Kpartition in data set [1] was 26; the Kpartition under setting [4] is on record as 124; the Kpartition (acetonitrile, Ligand 0.8 wt%, rhodium 223 ppm, Example 17) was found to be 19; the Kpartition (hexane/acetonitrile, Ligand 1.5 wt%, rhodium 318 ppm, Example 15) is 34; the Kpartition under setting [5] is reported as 27.

With `CC(C)(C)c1ccc(OP(Oc2ccccc2-c2ccccc2OP(Oc2ccc(C(C)(C)C)cc2C(C)(C)C)Oc2ccc(C(C)(C)C)cc2C(C)(C)C)Oc2ccc(C(C)(C)C)cc2C(C)(C)C)c(C(C)(C)C)c1` [Ligand F], the Kpartition in data set [1] is 100.

Consider `CC(C)(C)CC(C)(C)c1cc(-c2cc(C(C)(C)CC(C)(C)C)cc(C(C)(C)CC(C)(C)C)c2Op2oc3ccc(C(C)(C)C)cc3c3cc(C(C)(C)C)ccc3o2)c(Op2oc3ccc(C(C)(C)C)cc3c3cc(C(C)(C)C)ccc3o2)c(C(C)(C)CC(C)(C)C)c1` [Ligand E], for which the Kpartition in data set [1] is on record as 502; the Kpartition under setting [4] came to 79; the Kpartition (DMSO, Ligand 0.6 wt%, rhodium 120 ppm, Example 23) amounted to 128; the Kpartition (acetonitrile, Ligand 0.6 wt%, rhodium 120 ppm, Example 22) stood at 250; the Kpartition under setting [5] is on record as 352.

In data set [1], `CCCCCC(C)(C)c1cc(-c2cc(C(C)(C)CCCCC)cc(C(C)(C)CCCCC)c2Op2oc3ccccc3c3ccccc3o2)c(Op2oc3ccccc3c3ccccc3o2)c(C(C)(C)CCCCC)c1` [Ligand D] registered a Kpartition of 116.

`CCC(C)(C)c1cc(-c2cc(C(C)(C)CC)cc(C(C)(C)CC)c2Op2oc3ccccc3c3ccccc3o2)c(Op2oc3ccccc3c3ccccc3o2)c(C(C)(C)CC)c1` [Ligand H]: the Kpartition in data set [1] is listed as 6.

In turn, `CC(C)(C)c1ccc(Op2oc3c(C(C)(C)C)cc(C(C)(C)C)cc3c3cc(C(C)(C)C)cc(C(C)(C)C)c3o2)c(C(C)(C)C)c1` [Ligand M] displayed a Kpartition in data set [1] of 25.

Take `CCCCCCCCP(CCCCCCCC)CCCCCCCC` [Ligand J]: in data set [1], the “partition coefficient Kp” value is more than 100 and the Kpartition is listed as more than 100.

For `CCC=O` [propionaldehyde], in data set [2], the Kpartition was 9.2.

Take `CC(C)C(=O)OCC(C)(C)C(O)C(C)C` (stereo not shown) [Texanol]: the “Kpartition Texanol” value was 0.4 in data set [3] (hexane/acetonitrile, Vratio 5.6, Example 40) and 96 in data set [3] (toluene vs acetonitrile containing water 4/1, Example 41).

`CCCCC=O` [valeraldehyde]: in data set [2], the Kpartition is reported as 2.0.
